The source of these data is patent publication US20250325689A1, “ANTIBODY-MULTIDRUG CONJUGATE” (UBE CORPORATION, priority 2022, published 2025).

In the assay the target is T1, porcine tubulin (Sus scrofa, UniProt P02550+P02554).
T1 construct: purchased Cytoskeleton, Inc. BKO11P
As to the kind of experiment: Tubulin polymerization inhibition test. The format is biochemical. Conditions: 37° C., fluorescence measured for 60 minutes. As to the method: For measuring the tubulin polymerization inhibitory action, Tubulin Polymerization Assay Kit (manufactured by Cytoskeleton, Inc., BKO11P) was used. A PIPES buffer containing porcine tubulin, GTP, MgCl2, EGTA, Glycerol, and a fluorescent reporter was prepared under ice-cooling as a reaction solution. The reaction solution was ice-cooled until it was used. A test compound solution was prepared by an aqueous solution containing 1.5% DMSO, and added to a 96 well plate (manufactured by Corning Inc., 3686) at 5 μL/well. The reaction solution was added thereto at 50 μL/well, the plate was placed in a microplate reader (FlexStation 3, manufactured by Molecular Device, LLC) in which the internal temperature was set to 37° C. in advance, and the fluorescence intensity measurement (excitation wavelength: 360 nm, detection wavelength: 420 nm) of each well was started. The fluorescence intensity was measured once every minute, and the measurement was continued for 60 minutes.
The tubulin polymerization inhibition rate (%) was calculated by the following equation. […]

Molecules are shown by their SMILES. Starred links: 1 amine or outer side, 2 acyl side, 3 side chain; linkers in the order of their positions; H or OH if unused. Non-standard residues stand in square brackets, D forms with d. Residues, ends and D or L forms follow the SMILES beside them. *: point of attachment. Dolaproine = CO[C@@H]([C@@H]1CCCN1)[C@@H](C)C(=O)O; X2 = C[C@@H](N[*:1])[C@@H](OC(=O)[*:2])c1ccccc1; Dil = CC[C@H](C)[C@H](NC)[C@@H](CC(=O)O)OC; X4 = OCC1OC(n2cc(CN*)nn2)C(O)C(O)C1O; NMeV = CN[C@H](C(=O)O)C(C)C Where only a bound is given, the exact number is not on record here.

T1 sequence (P02550 whole entry): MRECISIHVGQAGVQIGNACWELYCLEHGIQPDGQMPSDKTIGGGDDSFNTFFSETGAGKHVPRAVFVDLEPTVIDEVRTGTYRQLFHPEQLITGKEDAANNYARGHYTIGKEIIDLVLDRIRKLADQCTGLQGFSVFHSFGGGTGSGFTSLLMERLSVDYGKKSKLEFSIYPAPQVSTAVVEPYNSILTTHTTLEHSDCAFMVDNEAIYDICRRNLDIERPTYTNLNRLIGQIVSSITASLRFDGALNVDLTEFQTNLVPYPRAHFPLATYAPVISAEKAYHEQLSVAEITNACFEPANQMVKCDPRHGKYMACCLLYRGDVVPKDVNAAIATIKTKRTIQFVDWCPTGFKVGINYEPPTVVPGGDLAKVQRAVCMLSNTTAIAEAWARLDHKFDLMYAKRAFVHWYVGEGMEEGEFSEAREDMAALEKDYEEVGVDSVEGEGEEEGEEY
T1 sequence (P02554 whole entry): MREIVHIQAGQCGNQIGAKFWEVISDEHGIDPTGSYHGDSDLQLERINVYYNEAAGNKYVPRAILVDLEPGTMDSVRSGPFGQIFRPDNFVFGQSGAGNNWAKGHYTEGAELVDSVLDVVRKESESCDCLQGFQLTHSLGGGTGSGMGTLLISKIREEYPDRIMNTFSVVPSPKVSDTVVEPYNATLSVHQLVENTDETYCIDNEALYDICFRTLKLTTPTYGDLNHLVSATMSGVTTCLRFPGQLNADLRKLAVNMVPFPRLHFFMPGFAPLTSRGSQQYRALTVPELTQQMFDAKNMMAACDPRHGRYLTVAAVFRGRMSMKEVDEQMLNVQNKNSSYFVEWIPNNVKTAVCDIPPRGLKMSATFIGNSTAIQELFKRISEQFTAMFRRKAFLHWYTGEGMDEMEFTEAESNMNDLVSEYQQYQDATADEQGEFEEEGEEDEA

With `CC[C@H](C)[C@@H]([C@@H](CC(=O)N1CCC[C@H]1[C@H](OC)[C@@H](C)C(=O)N[C@H](C)[C@@H](OC(=O)NCc1cn(C2OC(CO)C(O)C(O)C2O)nn1)c1ccccc1)OC)N(C)C(=O)[C@@H](NC(=O)[C@@H](NC)C(C)C)C(C)C` (stereo partly shown) [Example U-018] (H-[NMeV]V[Dil][Dolaproine][X2]-X4), the 50% inhibitory concentration (IC50) is no more than 3 µM.

The term IC50 denotes the midpoint of a concentration-inhibition curve.
